Measurements taken from patent US12344587B2, “Synthetic retinoids for use in RAR activation” (UNIVERSITY OF DURHAM, priority 2019, dated 2025).
Converted amounts (≈) assume the structure as drawn.

What was measured:
[1] = tested on: retinoic acid response element (RARE); experiment: X-Gal RA based reporter assay (genomic activity); type: cell-based; settings: for Genomic Activity (X-Gal RA Based Reporter Assay) Efficacy (Emax) / EC50: Sil-15 reporter cells, overnight incubation; for EC50: read-out: Genomic Activity (X-Gal RA Based Reporter Assay) Potency (EC50); for Genomic activity and potency compared to retinoic acid (ATRA): X-Gal assay, versus ATRA
Method: The genomic activity of synthetic retinoids was evaluated by determining their efficiency of inducing transcription using the X-Gal Assay. The X-Gal Assay utilizes Sil-15 reporter cells in which the transcription of the LacZ gene is under control of a promoter linked to a retinoic acid response element (RARE). After treatment of the reporter cells with retinoids, the ability of the compounds to induce transcription can be attained by monitoring and quantifying the activity of β-galactosidase produced by the reporter cells.
Sil-15 cells were plated at 100,000 cells per well in 96-well plates coated in 0.1% gelatin. The following day, serial dilutions of retinoid ligands, prepared in Dulbecco's Modified Eagle's Medium (DMEM) containing 10% foetal calf serum (FCS) were added at concentrations from 10^−6 M to 10^−14 M and the plates were incubated overnight. All concentrations for the ATRA standard curve and the other retinoid ligands were tested in triplicate.
The next day, the assay plates were washed twice with phosphate buffered saline (PBS), fixed with 100 μl per well of 1% glutaraldehyde and 1 mM MgCl2 in PBS for 15 minutes and washed twice with PBS. β-galactosidase activity was detected by the addition of 100 μl of freshly-prepared 0.2% X-Gal in 1 mM MgCl2, 3.3 mM potassium ferricyanide and 3.3 mM potassium ferrocyanide in PBS per well. Plates were incubated for 6 hours at 37° C. in 5% CO2 and colour change was detected by reading the plates at 650 nm on an Emax Precision Microplate Reader (Molecular Devices).

[2] = tested on: ERK1/2; experiment: ERK1/2 phosphorylation assay, AlphaLISA SureFire Ultra (non-genomic activity); type: cell-based; set-up: Non-genomic activity (ERK½ Phosphorylation Assay) Efficacy (Emax): unit not given here; settings: SH-SY5Y cells; for EC50: Homo sapiens, 0.5 h, read-out: Non-genomic activity (ERK½ Phosphorylation Assay) Potency (EC50); for EC50 / Non-genomic activity (ERK½ Phosphorylation Assay) Efficacy (Emax): serum-free, 30 minutes stimulation; for Erk 1/2 phosphorylation potency/efficacy compared to retinoic acid: versus retinoic acid
Method: The non-genomic activity of synthetic retinoids was evaluated by measuring their ability to induce phosphorylation of ERK1/2 using the AlphaLISA® SureFire® Ultra ERK1/2 kit.
In this assay, SH-SY5Y cells (100,000 cells/well) were plated in 96-well plates and serum-starved in DMEM for 24 hours. Retinoids were tested at concentrations from 10−5 M to 10−11 M and at a final concentration of 0.1% DMSO in the medium. The assay was carried out on the SH-SY5Y cells in serum-free DMEM, cells were stimulated by retinoid for 30 minutes at 37° C.
At the end of the assay, the medium was removed, and cells were lysed in 50 μl of freshly prepared 1× lysis buffer (supplied in the kit). The 96-well plate was agitated on an orbital shaker (SO1, Stuart Scientific) at approximately 350 rpm for 10 minutes at room temperature.
In the meantime, the activation buffer was diluted 25-fold in the reaction buffers. Under green light in a dark room, the acceptor beads were diluted 50-fold in the freshly prepared reaction mix while the donor beads were diluted 50-fold in dilution buffer to obtain two final reaction mixtures.
10 μl of cell lysate was then transferred per well into 384-well white Proxiplates plates (PerkinElmer) and 5 μl of each prepared acceptor and donor reaction mixture was added under green light in a dark room. Plates were wrapped with aluminium foil and incubated at room temperature for at least 3 hours. Readings were taken using an Envision system (PerkinElmer Life Sciences) using the AlphaScreen® settings.

[3] = Turbidimetric aqueous solubility; type: physicochemical; settings: aqueous buffer, kinetic from dmso stock, 0.01 M phosphate buffered saline pH 7.4, 1% DMSO, 37° C.
Method: Test compound (10 mM in DMSO) is serially diluted to give solutions of 0.1, 0.3, 1 and 3 mM in DMSO. Each test compound concentration is then further diluted 1 in 100 in buffer (0.01 M phosphate buffered saline pH 7.4) so that the final DMSO concentration was 1% and the final test compound concentrations were 1, 3, 10, 30 and 100 μM. The experiment was performed at 37° C. and each concentration sample was incubated in 7 replicate wells. The plates were incubated for 2 hr at 37° C. before the absorbance was measured at 620 nm. The solubility of the sample was estimated from the concentration of test compound that produced an increase in absorbance above vehicle control (i.e., 1% DMSO in buffer).

[4] = tested on: SH-SY5Y cells; experiment: Induction of neurite outgrowth; type: cell-based; settings: 10 nM, 5 days; for fold induction at 0.01 µM: Homo sapiens, 120 h, read-out: Neurite Outgrowth Fold increase
Method: SY—SY5Y cells were plated at 10,000 cells/well in 12-well plates containing acid-treated/poly-L-lysine-coated coverslips. After 24 hours, each retinoid was added to the medium at a concentration of 10 nM and the plates were incubated for 5 days. After retinoid treatment, SH-SY5Y cells on coverslips were washed twice in PBS, fixed in 4% paraformaldehyde (PFA) for 20 minutes at room temperature, and washed twice with PBS.
For immunocytochemical staining of neurites, cells on coverslips were washed three times in PBS, and incubated in blocking solution (10% donkey serum and 0.1% triton X-100 in PBS) for 1 hour at room temperature. Cells were then labelled by incubation overnight at 4° C. with β-III tubulin primary antibody (Sigma-Aldrich) diluted 1:1000 in blocking buffer. Following incubation overnight, cells were washed three times with PBS containing 0.1% Triton X-100 solution (PBST) before incubation with anti-mouse monoclonal secondary antibody (1:300 in PBST; Jackson Immunoresearch) for 2 hours at room temperature. Finally, after three washes in PBST and a final wash in PBS, the coverslips were mounted on slides and stored at 4° C.
ImageJ software with the NeuronJ plugin was used to quantify neurite outgrowth on stained cells. For each experiment, 10 different randomly selected images were taken from each cover slip using a Nikon Eclipse E400 fluorescence microscope. Each image was converted into an 8-bit image (necessary for the NeuronJ plugin) and optimised with the brightness and contrast tool in GIMP (GNU Image Manipulation Program). For each image, individual traces were drawn for each clearly-identifiable neurite using the tracing tool in the NeuronJ plugin. Neurite length was measured in pixels and transformed into the corresponding length in μm depending on the magnification used. The average neurite length for each image was calculated by dividing total neurite length by the total number of neurites per image. Ten images per cover slip were measured and the mean calculated for the coverslip overall. Coverslips were in triplicate for each retinoid and concentration.

| EC50 [1] | EC50 [2] | solubility at 2 h [3] | SMILES | Genomic Activity (X-Gal RA Based Reporter Assay) Efficacy (Emax) [1] | Genomic activity and potency compared to retinoic acid (ATRA) [1] | Non-genomic activity (ERK½ Phosphorylation Assay) Efficacy (Emax) [2] | Erk 1/2 phosphorylation potency/efficacy compared to retinoic acid [2] | Average neurite length compared to cells treated with ATRA [4] | fold induction at 0.01 µM [4] |
| --- | --- | --- | --- | --- | --- | --- | --- | --- | --- |
| 0.146 nM | 14.2 nM | 20 µM (≈ 6.67 µg/mL) | CC1(C)CCC(C)(C)c2cc(C#Cc3ccc(C(=O)O)nc3)ccc21 [DC528, 5-[2-(5,5,8,8-tetramethyl-5,6,7,8-tetrahydronaphthalen-2-yl)ethynyl]pyridine-2-carboxylic acid] | 206.5 | increased genomic activity and potency | 69.15 | higher potency and efficacy | significantly larger average neurite length | 2.2 |
| 0.0581 nM | 26.4 nM | 20 µM (≈ 7.01 µg/mL) | CC1(C)CCC(C)(C)c2cc(C#Cc3ccc(C(=O)O)cc3F)ccc21 [DC526, 3-Fluoro-4-[2-(5,5,8,8-tetramethyl-5,6,7,8-tetrahydronaphthalen-2-yl)ethynyl]benzoic acid] | 149.1 | increased genomic activity and potency | 50.22 | higher potency and efficacy | significantly larger average neurite length | 2.1 |
| 0.0697 nM | 8.54 nM | > 100 µM | CC1(C)CCC(C)(C)c2nc(C#Cc3ccc(C(=O)O)cc3)cnc21 [DC645, 4-[2-(5,5,8,8-Tetramethyl-5,6,7,8-tetrahydroquinoxalin-2-yl)ethynyl]benzoic acid] | 185.9 | increased genomic activity and potency | 91.57 | higher potency and efficacy | significantly larger average neurite length | 2.3 |
